Measured values from patent publication US10478464B2, “Compositions and methods of use” (priority 2009, dated 2019).

Assays:
[1] = system: HOP-92 lung cancer cell lines; experiment: Cell survival, colorimetric MTT assay, HOP-92; type: cell-based, human; conditions: 72 hours; for reduced the survival of HOP92 cell lines by: 100 μM
Method: 1) Against the lung cancer cell lines: The effect of the racemic mixture of 8-HHA and that of the individual enantiomers, namely S and R enantiomers, were examined on the survival of HOP-92 lung cancer cell lines. The cell viability was examined in the exponential growth phase with 100 μM of 8-HHA for 72 hours using colorimetric MTT assay. In separate assays, HOP-92 cells were treated with different concentrations of the S-enantiomer of 8-HHA ranging from 20-100 μM for 72 hours.

HeLa cells = experiment: HeLa cell viability by Alamar Blue assay; type: cell-based; conditions: 24, 48 and 72 hrs
Source text: Assessment of cell viability by alamar blue reduction method is routinely used for illustrating cytotoxic potential of candidate drugs. Alamar blue detects cell viability by utilizing a blue non-fluorescent dye resazurin, which is converted to a pink fluorescent dye, resorufin by cellular metabolic intermediates. The fluorescent signal generated from the assay is proportional to the number of living cells in the sample. Confluent HeLa cells (70-80%) grown in T-75 flasks were detached using trypsin-EDTA. Following centrifugation, the cells pellet was resuspended in DMEM medium and counted using a hemocytometer. Cells were seeded into 96 well plate at a density of 10,000 cells/100 μl/well and incubated at 37° C./5% CO2 for 8 hrs. Media was removed and test compounds were added in the volume of 100 μl. […] At the end of 24, 48 & 72 hrs treatment with test compound, fluorescence was measured at 530 excitation and 590 nm emissions using a micro plate reader. Viability expressed as % control was plotted against drug concentration.
The mean value of duplicate wells was calculated. […] The percentage of cell viability of test samples was calculated as:
[formula] IC50 values were determined by nonlinear regression analysis (curve fit) of percent viability data against drug concentration using the sigmoidal dose-response (variable) equation (Graph Pad Prism 4 software).

Bim1 = experiment: Pro-apoptotic Bim1 in HOP92 cells; type: cell-based, human; conditions: 100 μM, 72 hours
Method: Bim1 is a pro-apoptotic protein whose up regulation leads to apoptosis. HOP92 cell lines were treated with 100 μM of S-enantiomer of 8-HHA for 72 hours.

[2] = system: PLC/PRF/5 liver cancer cell line; experiment: Cell survival, colorimetric MTT assay, PLC/PRF/5; type: cell-based; conditions: 72 hours
Method: (§1) 2) Against the liver cancer cell lines: The effect of the racemic mixture of 8-HHA and that of the individual enantiomers, namely S and R enantiomers, were examined on survival of PLC/PRF/5 (also referred to as “PLC-5” or “PLC5”), Hep3B and SNU449 (also referred to as “SNU”) liver cancer cell lines. The cell viability was examined in the exponential growth phase with 100 μM of 8-HHA for 72 hours using colorimetric MTT assay. In separate assays, PLC-5 cells were treated with different concentrations of S-enantiomer of 8-HHA ranging from 20-100 μM for 72 hours.

PARP [3] = experiment: PARP cleavage in PLC-5 liver cancer cells; type: cell-based; conditions: PLC-5 cells, 100 μM
Source text: (§2) PARP cleavage is considered a specific and well established marker of apoptosis. During apoptosis, FAS receptor undergoes down regulation, which is considered as an established indicator of apoptosis. Apoptosis can be induced by a pathway stimulated by FAS receptor binding to FAS ligand and is called extrinsic mechanism. Apoptosis by this pathway results in the reduction of FAS receptor.
(§3) 1) Against liver cancer cell lines: The effect of 8-HHA was examined on apoptosis in liver cancer cell lines.

FAS receptor [4] = experiment: FAS protein levels in HOP-92 cells; type: cell-based, human; conditions: HOP92 cells, 100 μM, 72 hours
Method: as §2
2) Against lung cancer cell lines: HOP-92 lung cancer cell lines were treated with 100 μM of (S)-8-HHA for 72 hours.

[5] = system: Hep3B liver cancer cell line; experiment: Cell survival, colorimetric MTT assay, Hep3B; type: cell-based; conditions: 100 μM, 72 hours
Method: as §1

FAS receptor [6] = experiment: FAS receptor levels in PLC-5 cells; type: cell-based; conditions: 100 μM, 72 hours
Method: as §2
PLC-5 cell lines were treated with […] 100 μM for 72 hours.

PARP [7] = experiment: PARP cleavage in SNU liver cancer cells; type: cell-based; conditions: 100 μM
Source text: as §2, §3

[8] = system: SNU449 liver cancer cell line; experiment: Cell survival, colorimetric MTT assay, SNU449; type: cell-based; conditions: 100 μM, 72 hours
Method: as §1

Row | SMILES | reduced the survival of HOP92 cell lines by [1] | HeLa cell viability, result in words (HeLa cells) | Bim1 increase compared to the control sample (Bim1) | reduced the survival of PLC-5 cell line by ([2]; 100 μM) | IC50 ([2]; Homo sapiens, PLC-5, 20-100 μM, read-out: 50% reduction in cell survival (IC50)) | IC50 ([1]; Homo sapiens, HOP-92, 20-100 μM, read-out: 50% reduction in cell survival (IC50)) | PARP cleavage (PARP [3]) | FAS protein levels (FAS receptor [4]) | reduced the survival of Hep3B cell line by [5] | FAS receptor levels compared to the control (FAS receptor [6]) | PARP cleavage (PARP [7]) | effect on survival of SNU cell line [8]
1 | CCCCCCCC[C@@H](O)CCCCCCC(=O)O [(R)-8-HHA, 8(R)-hydroxypalmitic acid] | 13% | – | – | – | – | – | – | – | – | – | – | –
2 | CC(C)(C)c1ccc(C(O)CCCN2CCC(C(O)(c3ccccc3)c3ccccc3)CC2)cc1 (stereo not shown) [Terfenadine] | – | dose dependent inhibition | – | – | – | – | – | – | – | – | – | –
3 | CCCCCCCC[C@H](O)CCCCCCC(=O)O [(S)-8-HHA, 8(S)-hydroxypalmitic acid] | 72% | – | 2 fold | ~75% | ~50 µM | ~90 µM | resulted in the PARP cleavage | reduction of FAS protein levels | ~75% | substantial reduction in FAS receptor levels | resulted in the PARP cleavage | ~75%
